{
  "source": "patent US20260097083A1",
  "about": "“METHOD FOR PRODUCING PANCREATIC ENDODERM CELLS” (Kyoto University, priority 2022, published 2026)",
  "key": {"[1]": {"test_system": "PDX1+/NKX6.1+ pancreatic endoderm cells", "assay": "Expansion culture with Y-27632 at different concentrations", "format": "cell-based", "conditions": "40 days, FIG. 5-A", "description": "FIG. 5-A Changes in the number of PDX1^+/NKX6.1^+ pancreatic endoderm cells and the total number of cells during expansion culture with Y-27632 (0, 10, or 50 μM). (1) After the cells produced in clause 1 above were washed with PBS(−), 1 ml of 0.25% trypsin-EDTA was added thereto, and the cells were incubated at 37° C. and 5% CO2 for 5 minutes. (2) The adherent cells were detached through pipetting and were added to a 50-ml centrifuge tube. (3) 4 ml of DMEM (Dulbecco's Modified Eagle Medium)/10% FBS/PS (penicillin-streptomycin) was added to the centrifuge tube. (4) The resulting mixture was centrifuged at 400 G for 3 minutes, and the supernatant was removed. (5) The cells were suspended in improved MEM (containing 10 μM Y-27632, 0.5×B-27 Supplement, and 100 U/ml penicillin/streptomycin), and were counted. (6) When the cells were seeded on a 6-well plate, an amount of the suspension necessary to provide 1×10^6 cells/well was collected and was centrifuged at 400 G for 3 minutes (2×10^5 cells/well for a 24-well plate). (7) After the supernatant was removed, the cells were re-suspended in improved MEM (containing 100 ng/ml KGF, 50 ng/ml EGF, 10 mM nicotinamide, 50 μM Y-27632, 0.5×B-27 Supplement, and 100 U/ml penicillin/streptomycin), the suspension was adjusted to correspond to 2 ml/well, and then the cells were seeded. A 6-well plate to which the cells were to be seeded had been coated in advance by adding a solution formed by mixing 10 μl of iMatrix-511 silk and 1.5 ml of PBS(−) to each well 1 hour before seeding, and incubating the plate at 37° C. and 5% CO2 for 1 hour. (8) On the next day (Day 1), the cells were washed with improved MEM, and then the culture medium was changed to improved MEM (5 ml/well) containing 100 ng/ml KGF, 50 ng/ml EGF, 10 mM nicotinamide, 50 μM Y-27632, 0.5×B-27 Supplement, and 100 U/ml penicillin/streptomycin. (9) The cells were washed with improved MEM 3 days after that (on Day 4), and then the culture medium was changed to the same culture medium as that in the step (7) (5 ml/well). (10) The steps (1) to (7) above were conducted 3 days after that (on Day 7), and the next passage (expansion culture) was conducted. Expansion culture and passage culture were repeated by repeating the steps (8), (9), and (10) from the next day. One round of the passage (expansion culture) corresponded to 7 days (operations above). FIGS. 4-A show the outline of this procedure. […]"}, "[2]": {"test_system": "NKX6.1-positive pancreatic endoderm cells derived from human iPS cells", "assay": "Screening of senescence-related reagents", "format": "cell-based", "description": "FIG. 2-A A schematic diagram illustrating senescence-related reagent screening. […] After the elapse of one week, the cells were counted under a fluorescence microscope. Cells were differentiated to a pancreatic endoderm cell level using a stepwise differentiation-inducing method, and were then re-seeded on a 24-well plate at 2×10^5/well. The following culture media were added to these cultured cells, and the cells were cultured for 1 week. […] After fixed using 4% PFA, the cells were subjected to β-gal staining and NKX6.1 antibody immunostaining, and fluorescently stained images were acquired using BZ-800 (Keyence). The number of NKX6.1-positive cells, the NKX6.1-positive ratio, and the β-gal-positive ratio were calculated using the BZ-[…]/Macro Cell Count function of that microscope. FIGS. 2-A and 3-A show the outline of this procedure. A reagent enabling proliferation of pancreatic endoderm cells derived from human iPS cells was searched for in the senescence-related reagents. […] Then, (1) the number of NKX6.1-positive cells, or (2) the ratio of NKX6.1-positive cells and the ratio of β gal-positive cells were measured after the culture. FIGS. 2-B to 2-D show the results."}},
  "data": [
    {"compound": "C[C@@H](N)[C@H]1CC[C@H](C(=O)Nc2ccncc2)CC1", "note": "[Y-27632]", "values": [
      {"measurement": "number of PDX1+/NKX6.1+ pancreatic endoderm cells increased by a factor of", "setting": "[1]; Y-27632 10 μM", "result": "about 1×10^4"},
      {"measurement": "total number of cells increased by a factor of", "setting": "[1]; Y-27632 10 μM", "result": "about 1×10^4"},
      {"measurement": "number of PDX1+/NKX6.1+ pancreatic endoderm cells increased by a factor of", "setting": "[1]; Y-27632 50 μM", "result": "about 1×10^4"},
      {"measurement": "total number of cells increased by a factor of", "setting": "[1]; Y-27632 50 μM", "result": "about 1×10^4"},
      {"measurement": "ratio of the pancreatic endoderm cells (NKX6.1-positive)", "setting": "[2]; 50 μM, 1 week, FIG. 2-C", "result": "most effective"},
      {"measurement": "ratio of β gal-positive cells (senescent cells)", "setting": "[2]; 1 week, FIG. 2-D", "result": "exhibited an effect of reducing the ratio of β gal-positive cells"},
      {"measurement": "concentration most suitable for the proliferation", "setting": "[2]; FIG. 2-B", "result": 50, "unit": "µM"},
      {"measurement": "number of NKX6.1-positive cells (pancreatic endoderm cells)", "setting": "[2]; culture for 1 week, 24-well plate, FIG. 2-B", "result": "significantly increased"}
    ]}
  ]
}
